Results taken from PubChem BioAssay AID250 (DTP/NCI, 2004).
Values joined by “and” are separate entries in the source; they are usually repeats but may differ in a detail not shown here. Equal values may be shown once. Inconclusive results and toxic doses are left out.

System: BDF1 mice, L1210 leukemia sc, survival T/C
Assay: NCI In Vivo Anticancer Drug Screen. Data for tumor model L1210 Leukemia (subcutaneous) in B6D2F1 (BDF1) mice
Settings: endpoint: median survival time, higher = longer survival
Method: The antitumor activity of compounds was measured in mice bearing transplantable tumors. Survival or tumor size were measured and the results are expressed as the measurement made in the treated group (T) divided by the measurement made in the vehicle treated control group (C). The tumor model used in this assay is L1210 Leukemia (subcutaneous) in B6D2F1 (BDF1) mice

COc1cccc2c1C(=O)c1c(O)c3c(c(O)c1C2=O)C[C@@](O)(C(=O)CO)C[C@@H]3OC1CC(N)C(O)C(C)O1 (stereo partly specified)
T/C (dose: 0.39 mg/kg/injection, schedule: Q03HX008 (ip), vehicle: water): 88 % of control
T/C (dose: 0.39 mg/kg/injection, schedule: Q03HX008 (sc), vehicle: water): 100 % of control
T/C (dose: 0.65 mg/kg/injection, schedule: Q01DX005 (ip), vehicle: water): 95 % of control
T/C (dose: 0.65 mg/kg/injection, schedule: Q01DX005 (sc), vehicle: water): 95 % of control
T/C (dose: 0.65 mg/kg/injection, schedule: Q03HX008 (ip), vehicle: water): 100 % of control (2×) and 111 % of control
T/C (dose: 1.0 mg/kg/injection, schedule: Q04DX003 (ip), vehicle: saline): 92 % of control
T/C (dose: 1.08 mg/kg/injection, schedule: Q01DX005 (ip), vehicle: water): 95 % of control
T/C (dose: 1.08 mg/kg/injection, schedule: Q01DX005 (sc), vehicle: water): 100 % of control
T/C (dose: 1.08 mg/kg/injection, schedule: Q03HX008 (ip), vehicle: water): 100 % of control and 105 % of control and 111 % of control
T/C (dose: 1.8 mg/kg/injection, schedule: Q01DX005 (ip), vehicle: water): 100 % of control
T/C (dose: 1.8 mg/kg/injection, schedule: Q01DX005 (sc), vehicle: water): 110 % of control
T/C (dose: 1.8 mg/kg/injection, schedule: Q03HX008 (ip), vehicle: water): 111 % of control
T/C (dose: 1.8 mg/kg/injection, schedule: Q04DX003 (sc), vehicle: water): 111 % of control
T/C (dose: 2.0 mg/kg/injection, schedule: Q04DX003 (ip), vehicle: saline): 94 % of control
T/C (dose: 3.0 mg/kg/injection, schedule: Q01DX001 (sc), vehicle: water): 111 % of control
T/C (dose: 3.0 mg/kg/injection, schedule: Q01DX005 (sc), vehicle: water): 110 % of control
T/C (dose: 3.0 mg/kg/injection, schedule: Q04DX003 (sc), vehicle: water): 116 % of control
T/C (dose: 4.0 mg/kg/injection, schedule: Q04DX003 (ip), vehicle: saline): 92 % of control
T/C (dose: 5.0 mg/kg/injection, schedule: Q01DX001 (iv), vehicle: water): 111 % of control and 115 % of control
T/C (dose: 5.0 mg/kg/injection, schedule: Q01DX001 (sc), vehicle: water): 111 % of control
T/C (dose: 5.0 mg/kg/injection, schedule: Q04DX003 (sc), vehicle: water): 122 % of control
T/C (dose: 8.0 mg/kg/injection, schedule: Q04DX003 (ip), vehicle: saline): 91 % of control
T/C (dose: 8.4 mg/kg/injection, schedule: Q01DX001 (iv), vehicle: water): 122 % of control
T/C (dose: 14.0 mg/kg/injection, schedule: Q01DX001 (sc), vehicle: water): 111 % of control
T/C (dose: 14.0 mg/kg/injection, schedule: Q04DX003 (sc), vehicle: water): 94 % of control
T/C (dose: 23.0 mg/kg/injection, schedule: Q01DX001 (iv), vehicle: water): 67 % of control

CN(N=O)C(=O)N[C@@H](C=O)[C@@H](O)[C@H](O)[C@H](O)CO
T/C (dose: 25.0 mg/kg/injection, schedule: Q01DX009 (sc), vehicle: other): 123 % of control

Cc1cc2nc3c(=O)[nH]c(=O)nc-3n(CC(O)C(O)C(O)C(O)CO)c2cc1C (stereo unspecified)
T/C (dose: 180.0 mg/kg/injection, schedule: Q01DX Z (sc), vehicle: methylcellulose (MC)): 100 % of control
T/C (dose: 300.0 mg/kg/injection, schedule: Q01DX Z (sc), vehicle: methylcellulose (MC)): 100 % of control
T/C (dose: 500.0 mg/kg/injection, schedule: Q01DX Z (sc), vehicle: methylcellulose (MC)): 100 % of control

C[n+]1c2ccccc2c(Nc2ccc(NS(=O)(=O)CCCCN=C(N)N)cc2)c2ccc(N)cc21
T/C (dose: 1.5 mg/kg/injection, schedule: Q01DX009 (ip), vehicle: water): 110 % of control
T/C (dose: 3.0 mg/kg/injection, schedule: Q01DX009 (ip), vehicle: water): 120 % of control
T/C (dose: 6.0 mg/kg/injection, schedule: Q01DX009 (ip), vehicle: water): 151 % of control
T/C (dose: 12.0 mg/kg/injection, schedule: Q01DX009 (ip), vehicle: water): 173 % of control

Cc1c2ccncc2c(C)c2c1[nH]c1ccccc12
T/C (dose: 5.0 mg/kg/injection, schedule: Q03HX008 (ip), vehicle: steriod suspending solution): 111 % of control
T/C (dose: 5.0 mg/kg/injection, schedule: Q03HX008 (sc), vehicle: steriod suspending solution): 100 % of control
T/C (dose: 10.0 mg/kg/injection, schedule: Q03HX008 (ip), vehicle: steriod suspending solution): 111 % of control
T/C (dose: 10.0 mg/kg/injection, schedule: Q03HX008 (sc), vehicle: steriod suspending solution): 111 % of control
T/C (dose: 20.0 mg/kg/injection, schedule: Q03HX008 (sc), vehicle: steriod suspending solution): 111 % of control
T/C (dose: 40.0 mg/kg/injection, schedule: Q03HX008 (ip), vehicle: steriod suspending solution): 150 % of control

CCc1nc(N)nc(N)c1-c1ccc(Cl)cc1
T/C (dose: 108.0 mg/kg/injection, schedule: Q01DX Z (sc), vehicle: methylcellulose (MC)): 118 % of control

CCCn1cnc2c(=S)nc(N)[nH]c21
T/C (dose: 0.65 mg/kg/injection, schedule: Q01DX Z (sc), vehicle: methylcellulose (MC)): 100 % of control
T/C (dose: 0.65 mg/kg/injection, schedule: Q01DX Z (sc), vehicle: other): 100 % of control
T/C (dose: 1.08 mg/kg/injection, schedule: Q01DX Z (sc), vehicle: methylcellulose (MC)): 100 % of control
T/C (dose: 1.08 mg/kg/injection, schedule: Q01DX Z (sc), vehicle: other): 100 % of control
T/C (dose: 1.8 mg/kg/injection, schedule: Q01DX Z (sc), vehicle: methylcellulose (MC)): 100 % of control
T/C (dose: 1.8 mg/kg/injection, schedule: Q01DX Z (sc), vehicle: other): 105 % of control
T/C (dose: 3.0 mg/kg/injection, schedule: Q01DX Z (sc), vehicle: methylcellulose (MC)): 111 % of control
T/C (dose: 3.0 mg/kg/injection, schedule: Q01DX Z (sc), vehicle: other): 111 % of control
T/C (dose: 5.0 mg/kg/injection, schedule: Q01DX Z (sc), vehicle: methylcellulose (MC)): 111 % of control
T/C (dose: 5.0 mg/kg/injection, schedule: Q01DX Z (sc), vehicle: other): 122 % of control
T/C (dose: 8.4 mg/kg/injection, schedule: Q01DX Z (sc), vehicle: methylcellulose (MC)): 122 % of control
T/C (dose: 8.4 mg/kg/injection, schedule: Q01DX Z (sc), vehicle: other): 155 % of control
T/C (dose: 14.0 mg/kg/injection, schedule: Q01DX Z (sc), vehicle: other): 161 % of control
T/C (dose: 230.0 mg/kg/injection, schedule: Q01DX Z (sc), vehicle: other): 155 % of control
T/C (dose: 390.0 mg/kg/injection, schedule: Q01DX Z (sc), vehicle: other): 150 % of control
